Here are results for 1 molecule from patent US7495024B2, “Phenylalkyl N-hydroxyureas for combating atherosclerotic plaque” (VIA Pharmaceuticals, Inc., priority 2006, dated 2009).

Test [1] has as its system ApoE-deficient mice. The test can be described thus: Histopathological and quantitative assessment of plaque/lesion area in aortic root and aorta (Example 2, FIG. 3). Type of test: in vivo. The settings on record: 28-week old ApoE-deficient mice, 28 days. How it is done: Four week old female ApoE-deficient knockout mice were fed a high-fat diet set forth in Example 1 for a period of 24 weeks to allow atherosclerotic plaque to build-up. The 28 week old ApoE-deficient mice were then randomized to receive vehicle (0.9% sterile saline administered at 5 mL/kg or compound X administered at two different doses, 10 mg/kg and 50 mg/kg, each in a volume of 5 mL/kg (from concentrations of […] respectively) daily for 28 consecutive days. Saline vehicle and compound X were all prepared fresh daily and administered orally with a 22G gavage syringe. Doses were adjusted based on most recently obtained body weight. The following two treatment groups were tested and compared: 1) the first treatment group consisted of 20 female mice treated only with saline and 20 female mice treated with 10 mg/kg of compound X and 2) the second treatment group consisted of 20 female mice treated with vehicle and 20 female mice treated with 50 mg/kg of compound X.
The entire treatment was carried out by administering the vehicle or the dosage to the mice once a day for 28 days. […] At terminal sacrifice, aortas were harvested from 16 mice in each of the treatment groups and grossly evaluated, selected tissue from the remaining 4 mice per group were evaluated grossly and fixed and processed for histopathological analysis and quantitative determination of plaque burden.
For quantitative assessment of the atherosclerotic process, in FIG. 2 and FIG. 3, the aortic tree of mice was prepared and described by Tabibiazar, Wagner, et al. Physiol Genomics 22(2): 213-226 (2005). The amount of plaque/lesion area in the aortic root, as well as the entire aorta, was measured. Percent lesion areas were calculated as a total lesion area divided by the total surface area. […]
For the quantitative assessment of the atherosclerotic process in FIG. 3, the amount of plaque/lesion area in the aortic root as well as the entire aorta was measured. Percent lesion area was calculated at total lesion area divided by total surface area.

Test [2] has as its system patients with carotid stenosis undergoing elective carotid endarterectomy. In words: Randomized, double blind, placebo-controlled study in patients with carotid stenosis undergoing carotid endarterectomy (Example 4). Type of test: in vivo, human. The following applies: 100 mg daily oral. How it is done:
In this randomized, double blind, placebo-controlled study, groups of 40 clinically stable patients between the age of 30 and 80 years with carotid stenosis undergoing elective carotid endarterectomy are treated by orally administering 100 mg of Compound X or placebo. A total of 80 patients are enrolled. Baseline assessments are performed at the start of treatment and these baseline results are compared with repeat assessments during various follow-up periods of treatment. The treatment is conducted for at least twelve weeks at which time these baseline assessments are performed and compared. […]
Plaque samples are obtained from patients following carotid endarterectomy surgery and the samples are analyzed to determine the level of plaque tissue inflammation. […]
The co-primary efficacy variables are: the change from baseline in ex vivo plaque LTB4 synthesis in whole blood and in ex vivo plaque LTB4 concentration after 12 weeks of administration of study medication. […] The significance of the difference between the groups with respect to the ex vivo plaque LTB4 concentrations is assessed by a t-test. […]
The secondary outcome measures of percent macrophage sectional area and number of T lymphocytes in plaque are analyzed using t-tests at the 0.05 alpha level (two sided). […]

Consider `CC(C#Cc1ccc(Cc2ccc(F)cc2)s1)N(O)C(N)=O` (centres unmarked) [compound X, N-[3-[5-[(4-fluorophenyl)methyl]-2-thienyl]-1-methyl-2-propynyl]-N-hydroxyurea], for which, in test [1] (10 mg/kg (p<0.07) and 50 mg/kg (p<0.001) oral, vs vehicle), the “atherosclerotic plaque formation in the aortic root (histopathological evaluation)” value is on record as “dose dependent reduction of atherosclerotic plaque formation”. The “reduction in mean lesion area compared to vehicle” value in test [1] (50 mg/kg oral, statistically significant) is recorded as “approximately 45%”. Moreover, the “percent plaque lesion area in the aortas” value in test [1] (10 and 50 mg/kg/day oral, vs vehicle, dose dependent) is listed as “marked reduction of percent plaque lesion area”. For the same molecule, the “number of ischemic lesions after carotid endarterectomy by brain MRI using DWI, vs placebo group” value in test [2] (12 weeks) is reported as “reduction in the number of ischemic lesions”. For the same molecule, in test [2] (12 weeks of dosing), the “level of biomarkers and plaque tissue inflammation, percentage of patients vs placebo group” value was “reduction in the level of biomarkers and plaque tissue inflammation”.
